Measurements: ChEMBL document CHEMBL1201862, “PubChem BioAssay data set” (2004)
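Tested at 5 concentrations; 48 h exposure; 96-well plates; endpoints linearly interpolated, else capped at highest concentration. GI50 is the concentration that inhibits growth by half.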 Active and inactive are the calls of the source. Rule as the data show it: active = GI50 up to about 1.1 µM and inactive = higher.

Columns and labels:
Assay in all cases: NCI tumour cell line growth inhibition, 48 h
TK-10 = system: TK-10
PC-3 = system: PC-3
SK-MEL-28 = system: SK-MEL-28
SW-620 = system: SW-620
NCI-H226 = system: NCI-H226
OVCAR-8 = system: OVCAR-8
SK-MEL-5 = system: SK-MEL-5
HOP-92 = system: HOP-92
CCRF-CEM = system: CCRF-CEM
SR = system: SR
HL-60 = system: HL-60
M14 = system: M14
UO-31 = system: UO-31
EKVX = system: EKVX
MDA-MB-435 = system: MDA-MB-435
HT-29 = system: HT-29
HCC 2998 = system: HCC 2998
DU-145 = system: DU-145
NCI/ADR-RES = system: NCI/ADR-RES
RXF 393 = system: RXF 393
NCI-H23 = system: NCI-H23
T47D = system: T47D
U-251 = system: U-251
HOP-62 = system: HOP-62
BT-549 = system: BT-549
NCI-H522 = system: NCI-H522
HCT-116 = system: HCT-116
A498 = system: A498
LOX IMVI = system: LOX IMVI
SN12C = system: SN12C
Malme-3M = system: Malme-3M
NCI-H460 = system: NCI-H460
SF-295 = system: SF-295
SF-268 = system: SF-268
COLO 205 = system: COLO 205
UACC-257 = system: UACC-257
IGROV-1 = system: IGROV-1
KM12 = system: KM12
MDA-N = system: MDA-N
MCF7 = system: MCF7
UACC-62 = system: UACC-62
Hs-578T = system: Hs-578T
OVCAR-3 = system: OVCAR-3
OVCAR-5 = system: OVCAR-5
MDA-MB-231 = system: MDA-MB-231
786-0 = system: 786-0
CAKI-1 = system: CAKI-1
ACHN = system: ACHN
RPMI-8226 = system: RPMI-8226
SNB-19 = system: SNB-19
HCT-15 = system: HCT-15
SK-MEL-2 = system: SK-MEL-2
A549 = system: A549
SF-539 = system: SF-539
SK-OV-3 = system: SK-OV-3
MOLT-4 = system: MOLT-4
K562 = system: K562
OVCAR-4 = system: OVCAR-4
SNB-75 = system: SNB-75

## Clc1ccc(NCc2nnc(COc3ccc(OCc4nnc(CNc5ccc(Cl)cc5)o4)c(Cl)c3)o2)cc1
TK-10
  GI50: 56.9 µM (inactive)
PC-3
  GI50: 24 µM (inactive)
SK-MEL-28
  GI50: 75.3 µM (inactive)
SW-620
  GI50: 38.2 µM (inactive)
NCI-H226
  GI50: 23.3 µM (inactive)
OVCAR-8
  GI50: 62.7 µM (inactive)
SK-MEL-5
  GI50: 5.7 µM (inactive)
HOP-92
  GI50: 13.3 µM (inactive)
CCRF-CEM
  GI50: 11.2 µM (inactive)
SR
  GI50: 0.303 µM (active)
HL-60
  GI50: 3.52 µM (inactive)
M14
  GI50: > 100 µM (inactive)
UO-31
  GI50: 26.4 µM (inactive)
EKVX
  GI50: 22.8 µM (inactive)
MDA-MB-435
  GI50: 18.5 µM (inactive)
HT-29
  GI50: 27.2 µM (inactive)
HCC 2998
  GI50: > 100 µM (inactive)
DU-145
  GI50: > 100 µM (inactive)
NCI/ADR-RES
  GI50: 5.68 µM (inactive)
RXF 393
  GI50: 47.3 µM (inactive)
NCI-H23
  GI50: 44 µM (inactive)
T47D
  GI50: > 100 µM (inactive)
U-251
  GI50: 39.3 µM (inactive)
HOP-62
  GI50: > 100 µM (inactive)
BT-549
  GI50: 22.3 µM (inactive)
NCI-H522
  GI50: 10.6 µM (inactive)
HCT-116
  GI50: > 100 µM (inactive)
A498
  GI50: 28.4 µM (inactive)
LOX IMVI
  GI50: 20.3 µM (inactive)
SN12C
  GI50: 43.5 µM (inactive)
Malme-3M
  GI50: 51.1 µM (inactive)
NCI-H460
  GI50: 42.6 µM (inactive)
SF-295
  GI50: 20.7 µM (inactive)
SF-268
  GI50: 33.7 µM (inactive)
COLO 205
  GI50: 10.9 µM (inactive)
UACC-257
  GI50: 43.1 µM (inactive)
IGROV-1
  GI50: 17.2 µM (inactive)
KM12
  GI50: 26.9 µM (inactive)
MDA-N
  GI50: 20.4 µM (inactive)
MCF7
  GI50: 17.5 µM (inactive)
UACC-62
  GI50: 4.66 µM (inactive)
Hs-578T
  GI50: 28.1 µM (inactive)
OVCAR-3
  GI50: 29.7 µM (inactive)
OVCAR-5
  GI50: > 100 µM (inactive)
MDA-MB-231
  GI50: 15.7 µM (inactive)
786-0
  GI50: > 100 µM (inactive)
CAKI-1
  GI50: 28.7 µM (inactive)
ACHN
  GI50: 38.1 µM (inactive)
RPMI-8226
  GI50: 9.51 µM (inactive)
SNB-19
  GI50: > 100 µM (inactive)
HCT-15
  GI50: 43.6 µM
SK-MEL-2
  GI50: 14 µM (inactive)
A549
  GI50: 49 µM (inactive)

## COC(=O)c1cc(C)n(CN(Cn2nc(C(=O)OC)cc2C)c2ccccc2)n1
TK-10
  GI50: > 100 µM (inactive)
PC-3
  GI50: 28.3 µM (inactive)
SK-MEL-28
  GI50: 32.8 µM (inactive)
SW-620
  GI50: 29.6 µM (inactive)
OVCAR-8
  GI50: 19.4 µM (inactive)
SK-MEL-5
  GI50: 36 µM (inactive)
HOP-92
  GI50: 66.1 µM (inactive)
CCRF-CEM
  GI50: 16 µM (inactive)
SR
  GI50: 10 µM (inactive)
HL-60
  GI50: 4.7 µM (inactive)
M14
  GI50: 32.7 µM (inactive)
UO-31
  GI50: 18.3 µM (inactive)
EKVX
  GI50: > 100 µM (inactive)
MDA-MB-435
  GI50: 42.9 µM (inactive)
HT-29
  GI50: 16.7 µM (inactive)
DU-145
  GI50: 25.9 µM (inactive)
NCI/ADR-RES
  GI50: 21.2 µM (inactive)
RXF 393
  GI50: 20.1 µM (inactive)
NCI-H23
  GI50: 25.2 µM (inactive)
T47D
  GI50: 22 µM (inactive)
U-251
  GI50: 39 µM (inactive)
HOP-62
  GI50: 97.3 µM (inactive)
BT-549
  GI50: 31 µM (inactive)
NCI-H522
  GI50: 39 µM (inactive)
HCT-116
  GI50: 19.6 µM (inactive)
A498
  GI50: > 100 µM (inactive)
LOX IMVI
  GI50: 7 µM (inactive)
SN12C
  GI50: 55.1 µM (inactive)
Malme-3M
  GI50: 43.2 µM (inactive)
SF-539
  GI50: 17.7 µM (inactive)
NCI-H460
  GI50: 57.9 µM (inactive)
SK-OV-3
  GI50: > 100 µM (inactive)
SF-295
  GI50: 32.8 µM (inactive)
SF-268
  GI50: 34 µM (inactive)
COLO 205
  GI50: 16 µM (inactive)
UACC-257
  GI50: 33.3 µM (inactive)
IGROV-1
  GI50: 43 µM (inactive)
KM12
  GI50: 29.4 µM (inactive)
MDA-N
  GI50: 38.5 µM (inactive)
MCF7
  GI50: 28.1 µM (inactive)
UACC-62
  GI50: 15.1 µM (inactive)
Hs-578T
  GI50: > 100 µM (inactive)
OVCAR-3
  GI50: > 100 µM (inactive)
OVCAR-5
  GI50: 48.4 µM (inactive)
MDA-MB-231
  GI50: > 100 µM (inactive)
786-0
  GI50: 24.5 µM (inactive)
CAKI-1
  GI50: 37.8 µM (inactive)
ACHN
  GI50: 18.7 µM (inactive)
RPMI-8226
  GI50: 17.3 µM (inactive)
MOLT-4
  GI50: 13.4 µM (inactive)
K562
  GI50: 20 µM (inactive)
SNB-19
  GI50: > 100 µM (inactive)
OVCAR-4
  GI50: 18.4 µM (inactive)
HCT-15
  GI50: 18 µM
SK-MEL-2
  GI50: 36.1 µM (inactive)
A549
  GI50: 73.3 µM (inactive)

## COc1cccc(-c2cc(O)c3c(C)cc(C)nc3n2)c1
TK-10
  GI50: 40.8 µM (inactive)
SNB-75
  GI50: 0.167 µM (active)
PC-3
  GI50: 0.304 µM (active)
SK-MEL-28
  GI50: 0.83 µM (active)
SW-620
  GI50: 0.333 µM (active)
NCI-H226
  GI50: 0.394 µM (active)
OVCAR-8
  GI50: 0.944 µM (active)
SK-MEL-5
  GI50: 0.301 µM (active)
HOP-92
  GI50: 2.74 µM (inactive)
CCRF-CEM
  GI50: 0.431 µM (active)
SR
  GI50: 0.136 µM (active)
HL-60
  GI50: 0.182 µM (active)
M14
  GI50: 0.406 µM (active)
UO-31
  GI50: 0.867 µM (active)
EKVX
  GI50: 3.85 µM (inactive)
MDA-MB-435
  GI50: 0.0512 µM (active)
HT-29
  GI50: 0.34 µM (active)
HCC 2998
  GI50: 0.682 µM (active)
DU-145
  GI50: 1.21 µM (inactive)
NCI/ADR-RES
  GI50: 1.13 µM (inactive)
RXF 393
  GI50: 1.29 µM (inactive)
NCI-H23
  GI50: 0.746 µM (active)
T47D
  GI50: 14.5 µM (inactive)
U-251
  GI50: 0.526 µM (active)
HOP-62
  GI50: 1.09 µM (active)
BT-549
  GI50: 12.3 µM (inactive)
NCI-H522
  GI50: 0.521 µM (active)
HCT-116
  GI50: 0.395 µM (active)
A498
  GI50: 0.419 µM (active)
LOX IMVI
  GI50: 0.703 µM (active)
SN12C
  GI50: 0.845 µM (active)
Malme-3M
  GI50: 0.252 µM (active)
SF-539
  GI50: 0.455 µM (active)
NCI-H460
  GI50: 0.455 µM (active)
SK-OV-3
  GI50: 0.468 µM (active)
SF-295
  GI50: 0.493 µM (active)
SF-268
  GI50: 0.578 µM (active)
COLO 205
  GI50: 0.21 µM (active)
IGROV-1
  GI50: 0.486 µM (active)
KM12
  GI50: 0.264 µM (active)
MDA-N
  GI50: 0.067 µM (active)
MCF7
  GI50: 0.442 µM (active)
UACC-62
  GI50: 0.448 µM (active)
Hs-578T
  GI50: 0.538 µM (active)
OVCAR-3
  GI50: 0.228 µM (active)
OVCAR-5
  GI50: 2.57 µM (inactive)
MDA-MB-231
  GI50: 1.6 µM (inactive)
786-0
  GI50: 0.435 µM (active)
ACHN
  GI50: 0.555 µM (active)
RPMI-8226
  GI50: 0.345 µM (active)
MOLT-4
  GI50: 0.531 µM (active)
K562
  GI50: 0.158 µM (active)
SNB-19
  GI50: 0.714 µM (active)
OVCAR-4
  GI50: 4.09 µM (inactive)
HCT-15
  GI50: 0.399 µM
SK-MEL-2
  GI50: 0.615 µM (active)
A549
  GI50: 0.78 µM (active)
